“And” between values parts separate entries of the source, which are not always exact repeats. Equal values may be shown once.
Assay: Hill coefficient was evaluated

Hill coefficient	SMILES
1.01 and 1.18	COc1ccc(CCN2C3CC[C@@H]2[C@@H](N(C(=O)c2ccc([N+](=O)[O-])cc2)c2ccc(OC)c(OC)c2)C3)cc1OC
1.37 and 0.93	COc1ccc(CCN2C3CC[C@@H]2[C@H](N(C(=O)c2ccc([N+](=O)[O-])cc2)c2ccc(OC)c(OC)c2)C3)cc1OC

— ChEMBL document CHEMBL1130498, “Synthesis of conformationally constrained analogues of BRL-32872. Determination of stereochemistry and related pharmacological properties” (Bioorg Med Chem Lett, 1997)
